The target in this test is mouse CALHM1 (Mus musculus, UniProt D3Z291). As to conditions: permeant released through the channel; pH 7.4.
mouse CALHM1, sequence (D3Z291 whole entry): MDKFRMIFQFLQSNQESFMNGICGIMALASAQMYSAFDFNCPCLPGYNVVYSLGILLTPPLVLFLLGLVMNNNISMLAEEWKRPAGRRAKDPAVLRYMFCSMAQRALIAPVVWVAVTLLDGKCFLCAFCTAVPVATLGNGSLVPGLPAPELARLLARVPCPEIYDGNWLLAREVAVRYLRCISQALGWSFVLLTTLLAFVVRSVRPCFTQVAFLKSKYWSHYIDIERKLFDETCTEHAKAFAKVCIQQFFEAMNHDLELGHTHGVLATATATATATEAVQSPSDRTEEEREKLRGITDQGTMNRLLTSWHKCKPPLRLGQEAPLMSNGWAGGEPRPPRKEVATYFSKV

On to `Nc1ncnc2c1ncn2[C@@H]1O[C@H](COP(=O)(O)OP(=O)(O)OP(=O)(O)O)[C@@H](O)[C@H]1O` [ATP, adenosine 5′-triphosphate], for which the “luciferin-luciferase ATP release assay, transfected HeLa cells” value is “Expression of mouse CALHM1 conferred ATP release with similar properties”.

These data come from PMC3600154 (Nature, 2013).
